# According to patent US20230312587A1, “PTERIDINONE COMPOUNDS AND USES THEREOF” (Vertex Pharmaceutical Incorporated, priority 2018, published 2023):
# System: β-catenin-TCF-mediated reporter transcription activity in Colo 205 cells
# Experiment: Colo 205 reporter assay (TCF/LEF luciferase)
# Format: cell-based
# Conditions: Homo sapiens, 5 h; Colo 205 TCF/LEF luciferase reporter, five hours after addition of compound; read-out: TCF reporter Colo205 IC50
# Outline: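 Luciferase signal from a TCF/LEF-driven reporter, stably integrated in Colo 205 colon cancer cells, was measured 5 h after compound addition.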
row,Compound,IC50
1,"Cc1nc(N[C@H]2C[C@H](NC(=O)Oc3ccc(F)cc3)C2)nc2c1NC(=O)[C@H](C)N2C [Compound 465, 4-fluorophenyl (trans-3-(((S)-4,7,8-trimethyl-6-oxo-5,6,7,8-tetrahydropteridin-2-yl)amino)cyclobutyl)carbamate]",300 to 1000 nM

# Same assay, conditions: Homo sapiens, COLO 205, 5 h, Colo 205 TCF/LEF luciferase reporter, five hours after addition of compound; read-out: TCF reporter Colo205 IC50
row,IC50,Compound
1,< 300 nM,"COC1(C2C(=O)Nc3c(C)nc(NCc4cnn(Cc5cc(C(F)(F)F)nn5C)c4)nc3N2C)CCC1 (stereo not shown) [Compound 670, 7-(1-methoxycyclobutyl)-4,8-dimethyl-2-(((1-((1-methyl-3-(trifluoromethyl)-1H-pyrazol-5-yl)methyl)-1H-pyrazol-4-yl)methyl)amino)-7,8-dihydropteridin-6(5H)-one]"
2,300 to 1000 nM,"Cc1nc(N[C@H]2C[C@@H](NC(=O)Nc3ccc(F)cc3)C2)nc2c1NC(=O)[C@H](C)N2C [Compound 458, 1-(4-fluorophenyl)-3-(cis-3-(((S)-4,7,8-trimethyl-6-oxo-5,6,7,8-tetrahydropteridin-2-yl)amino)cyclobutyl)urea]"
3,300 to 1000 nM,"Cc1nc(N[C@H]2C[C@H](Oc3cnc(C(F)(F)F)nc3)C2)nc2c1N(C)C(=O)[C@H](C)N2C [Compound 334, (7S)-4,5,7,8-tetramethyl-2-((trans-3-((2-(trifluoromethyl)pyrimidin-5-yl)oxy)cyclobutyl)amino)-7,8-dihydropteridin-6(5H)-one]"
4,≥ 5000 nM,"Cc1nc(N[C@H]2C[C@@H](Cn3nc(N)cc3C(F)(F)F)C2)nc2c1NC(=O)[C@H](C(C)C)N2C [Compound 584, (S)-2-((cis-3-((3-amino-5-(trifluoromethyl)-1H-pyrazol-1-yl)methyl)cyclobutyl)amino)-7-isopropyl-4,8-dimethyl-7,8-dihydropteridin-6(5H)-one]"
5,< 300 nM,"COc1ccc(Cn2cc(CNc3nc(C)c4c(n3)N(C)[C@@H](C(C)C)C(=O)N4)cn2)cn1 [Compound 429, (7S)-7-isopropyl-2-(((1-((6-methoxypyridin-3-yl)methyl)-1H-pyrazol-4-yl)methyl)amino)-4,8-dimethyl-7,8-dihydropteridin-6(5H)-one]"
6,≥ 5000 nM,"O=C1Nc2cnc(NCc3cnn(Cc4ccc(F)cc4)c3)nc2N[C@H]1CCO [Compound 11, (7S)-2-(((1-(4-Fluorobenzyl)-1H-pyrazol-4-yl)methyl)amino)-7-(2-hydroxyethyl)-7,8-dihydropteridin-6(5H)-one]"
7,300 to 1000 nM,"C[C@H]1C(=O)Nc2c(CO)nc(NCc3cnn(Cc4ccc(C(F)(F)F)nc4)c3)nc2N1C [Compound 487, (7S)-4-(hydroxymethyl)-7,8-dimethyl-2-(((1-((6-(trifluoromethyl)pyridin-3-yl)methyl)-1H-pyrazol-4-yl)methyl)amino)-7,8-dihydropteridin-6(5H)-one]"
8,300 to 1000 nM,"Cc1nc(NCc2cnn(C3CCN(C(=O)c4cc(F)c(F)c(F)c4)CC3)c2)nc2c1NC(=O)[C@H](C)N2C [Compound 124, (7S)-4,7,8-Trimethyl-2-(((1-(1-(3,4,5-trifluorobenzoyl)piperidin-4-yl)-1H-pyrazol-4-yl)methyl)amino)-7,8-dihydropteridin-6(5H)-one]"
9,300 to 1000 nM,"Cc1nc(NCc2cnn(Cc3ccc(C(F)(F)F)cn3)c2)nc2c1NC(=O)[C@H](C)N2C [Compound 200, (7S)-4,7,8-trimethyl-2-(((1-((5-(trifluoromethyl)pyridin-2-yl)methyl)-1H-pyrazol-4-yl)methyl)amino)-7,8-dihydropteridin-6(5H)-one]"
10,300 to 1000 nM,"Cc1nc(N[C@H]2C[C@H](Oc3cc(F)c(F)c(F)c3)C2)nc2c1N(CCF)C(=O)[C@H](C)N2C [Compound 381, (7S)-5-(2-fluoroethyl)-4,7,8-trimethyl-2-((trans-3-(3,4,5-trifluorophenoxy)-cyclobutyl)-amino)-7,8-dihydropteridin-6(5H)-one]"
11,300 to 1000 nM,"CCN1C(=O)C(C)(C)N(CC)c2nc(NCc3cnn(Cc4ccc(F)cc4)c3)ncc21 [Compound 230, 5,8-diethyl-2-(((1-(4-fluorobenzyl)-1H-pyrazol-4-yl)methyl)amino)-7,7-dimethyl-7,8-dihydropteridin-6(5H)-one]"

# Continued, molecule first:
row,Compound,IC50
1,"Cc1nc(N[C@@H]2CCc3c2cnn3Cc2ccc(C(F)(F)F)nc2)nc2c1NC(=O)[C@H](C)N2C [Compound 625, (7S)-4,7,8-trimethyl-2-(((R)-1-((6-(trifluoromethyl)pyridin-3-yl)methyl)-1,4,5,6-tetrahydrocyclopenta[c]pyrazol-4-yl)amino)-7,8-dihydropteridin-6(5H)-one]",≥ 5000 nM
2,"Cc1nc(N[C@H]2C[C@H](Oc3ccc(OCC(F)(F)F)nc3)C2)nc2c1NC(=O)[C@H](C)N2C [Compound 347, (7S)-4,7,8-trimethyl-2-((trans-3-((6-(2,2,2-trifluoroethoxy)pyridin-3-yl)oxy)cyclobutyl)amino)-7,8-dihydropteridin-6(5H)-one]",< 300 nM
3,"COc1cc(C(F)(F)F)ncc1Cn1cc(CNc2nc(C)c3c(n2)N(C)[C@@H](C)C(=O)N3)cn1 [Compound 210, (7S)-2-(((1-((4-methoxy-6-(trifluoromethyl)pyridin-3-yl)methyl)-1H-pyrazol-4-yl)methyl)amino)-4,7,8-trimethyl-7,8-dihydropteridin-6(5H)-one]",< 300 nM
4,"Cc1nc(N[C@H]2C[C@H](Nc3cc(F)c(F)c(F)c3)C2)nc2c1NC(=O)[C@H](C)N2C [Compound 486, (S)-4,7,8-trimethyl-2-((trans-3-((3,4,5-trifluorophenyl)amino)cyclobutyl)amino)-7,8-dihydropteridin-6(5H)-one]",1000 to 5000 nM
5,"Cc1nc(NCc2cnn(Cc3ccc(C(C)(C)C#N)nc3)c2)nc2c1NC(=O)[C@H](C(C)C)N2C [Compound 470, (S)-2-(5-((4-(((7-isopropyl-4,8-dimethyl-6-oxo-5,6,7,8-tetrahydropteridin-2-yl)amino)methyl)-1H-pyrazol-1-yl)methyl)pyridin-2-yl)-2-methylpropanenitrile]",< 300 nM
6,"CO[C@H](C)[C@H]1C(=O)Nc2c(C)nc(N[C@H]3C[C@H](Oc4cc(F)c(F)c(F)c4)C3)nc2N1C [Compound 599, (S)-7-((R)—1-methoxyethyl)-4,8-dimethyl-2-((trans-3-(3,4,5-trifluorophenoxy)cyclobutyl)amino)-7,8-dihydropteridin-6(5H)-one]",< 300 nM
7,"COc1cc(Cn2cc(CNc3nc(C)c4c(n3)N(C)[C@@H](C)C(=O)N4)cn2)ccn1 [Compound 203, (7S)-2-(((1-((2-methoxypyridin-4-yl)methyl)-1H-pyrazol-4-yl)methyl)amino)-4,7,8-trimethyl-7,8-dihydropteridin-6(5H)-one]",< 300 nM
8,"Cc1nc(N[C@H]2C[C@@H](Oc3cnc(C(F)(F)F)nc3)C2)nc2c1NC(=O)[C@H](C(C)C)N2C [Compound 644, (S)-7-isopropyl-4,8-dimethyl-2-((cis-3-((2-(trifluoromethyl)pyrimidin-5-yl)oxy)cyclobutyl)amino)-7,8-dihydropteridin-6(5H)-one]",< 300 nM
9,"Cc1nc(N[C@H]2C[C@@H](COc3ccc(F)cc3)C2)nc2c1NC(=O)[C@H](C)N2C [Compound 261, (7S)-2-((cis-3-((4-fluorophenoxy)methyl)cyclobutyl)amino)-4,7,8-trimethyl-7,8-dihydropteridin-6(5H)-one]",< 300 nM

# Same assay, conditions: Homo sapiens, COLO 205, 5 h, R-isomer at C2 (corresponding to C2 S-isomer); Colo 205 TCF/LEF luciferase reporter, 5 h; read-out: TCF reporter Colo205 IC50
row,IC50,Compound
1,300 to 1000 nM,C[C@@H]1C(=O)N(C)c2cnc(NCc3cnn(Cc4ccc(F)cc4)c3)nc2N1C [Compound I-809]
